Assay results from patent US20140213453A1, “PLANT GROWTH REGULATION” (SYNGENTA PARTICIPATIONS AG, priority 2011, published 2014).

Legend:
Assay type in all cases: in vivo
winter rye (Rekrut) = test: Glasshouse trial, lodging after leaf spray at growth stage 30, winter rye; conditions: untreated check 18.9
Text: (§1) A glasshouse trial was setup to compare growth regulation effects of trinexapac-ethyl, cis-jasmone, and mixtures of trinexapac-ethyl and cis-jasmone at various rates, on summer barley (Pasadena) and winter rye (Rekrut). Each treatment was applied as a spray to the leaves of the plant at plant growth stage 30 (start of stem elongation). Assessments of lodging were made 30 days after application; the results are expressed as percentage lodging in Table 2. [table]

summer barley (Pasadena) = test: Glasshouse trial, lodging after leaf spray at growth stage 30, summer barley; conditions: for % lodging 30 DAA: summer barley, untreated check 32.2
Text: as §1

barley = test: Trial in Switzerland, growth regulation (plant height) on barley; conditions: rates g AI/ha: TXP (Moddus EC250) 75, CJN (EC300) 50, TXP + CJN 75 + 50, untreated check 89
Text: A trial was setup in Switzerland to compare growth regulation effects of trinexapac-ethyl, cis-jasmone, and mixtures of trinexapac-ethyl and cis-jasmone on barley. Assessments of plant height were made 21 days after application.

[1] = tested on: Poa annua golf course fairway; test: Turf study, clipping weights on golf course fairway; conditions: for Clipping weight (grams) per plot, 24-June / Clipping weight (grams) per plot, 10-June / Clipping weight (grams) per plot, 17-June / Clipping weight (grams) per plot, 3-July / Clipping weight (grams) per plot, 4-June: 3 applications on a 4 week schedule; for Clipping weight (grams) per plot, 24-June / Clipping weight (grams) per plot, 10-June / Clipping weight (grams) per plot, 17-June / Clipping weight (grams) per plot, 3-July / Clipping weight (grams) per plot, 4-June / Clipping weight (grams) per plot, Cumulative Clipping total: g ai/ha: TXP 96, CJN 50, TXP + cis-jasmone 72 + 50; for Clipping weight (grams) per plot, 24-June: check 11.95; for Clipping weight (grams) per plot, 10-June: check 12.1; for Clipping weight (grams) per plot, 17-June: check 13.8; for Clipping weight (grams) per plot, 3-July: check 15.7; for Clipping weight (grams) per plot, 4-June: check 21.5; for Clipping weight (grams) per plot, Cumulative Clipping total: total over all rating dates (not all shown), check 194
Description: A study was conducted on Poa annua golf course […], to compare the effects of treatment with cis-jasmone alone, trinexapac-ethyl alone, and combinations of cis-jasmone and trinexapac-ethyl. Clipping weights were measured at regular intervals.

[2] = Treatment 2: TXP (Moddus) 200 g AI/ha
[3] = Treatment 3: TXP (Moddus) 100 g AI/ha

SMILES | % lodging 30 DAA (winter rye (Rekrut); [2]) [%] | % lodging 30 DAA (winter rye (Rekrut); [3]) [%] | % lodging 30 DAA (summer barley (Pasadena); [2]) [%] | % lodging 30 DAA (summer barley (Pasadena); [3]) [%] | Plant height (cm) 21DAA (barley) [cm] | Clipping weight (grams) per plot, 24-June [1] | Clipping weight (grams) per plot, 10-June [1] | Clipping weight (grams) per plot, 17-June [1] | Clipping weight (grams) per plot, 3-July [1] [a grams] | Clipping weight (grams) per plot, 4-June [1] | Clipping weight (grams) per plot, Cumulative Clipping total [1] | % lodging 30 DAA (winter rye (Rekrut); Treatment 4: CJN 300 g AI/ha) [%] | % lodging 30 DAA (winter rye (Rekrut); Treatment 5: CJN 150 g AI/ha) [%] | % lodging 30 DAA (summer barley (Pasadena); Treatment 4: CJN 300 g AI/ha) [%] | % lodging 30 DAA (summer barley (Pasadena); Treatment 5: CJN 150 g AI/ha) [%] | effect on lodging, in words (summer barley (Pasadena); text summary for summer barley and winter rye, cis-jasmone treatments 4 and 5 compared to treatment 1 (untreated)) | effect on clipping weights, in words ([1]; Poa annua turf, compared to the untreated control)
CCOC(=O)C1CC(=O)C(=C(O)C2CC2)C(=O)C1 (stereo not drawn) [TXP, trinexapac-ethyl, reference compound] | 0.0 | 6.7 | 6.7 | 10.0 | 90 | 10.71 grams | 9.27 d grams | 11.35 grams | 18.2 | 18.1 grams | 173 def grams |  |  |  |  |  | 
CC/C=C\CC1=C(C)CCC1=O [CJN, cis-jasmone] |  |  |  |  | 90 | 14.7 a grams | 12.8 a grams | 17.69 a grams | 19.2 | 21.7 a grams | 213.5 a grams | 23.3 | 30.0 | 60.0 | 70.0 | significantly increases lodging | increased clipping weights
